Measurements published in patent publication US20060247416A1, “HIV gp41 HR2-derived synthetic peptides, and their use in therapy to inhibit transmission of human immunodeficiency virus” (priority 2004, published 2006).

Tests used:
[1] = test system: HIV-1; details: regimen of antiviral agents containing T20 versus same regimen without T20; cited from earlier work
[2] = 10 mg/ml in PBS, about pH 7.3 to about pH 7.5, 37° C., after several hours
Protocol: Each was individually tested for stability in aqueous solution by adding the peptide at a concentration of 10 mg/ml to phosphate-buffered saline (PBS), and by measuring (e.g., by HPLC) at different time points over a period of 1 week (168 hours) the amount of peptide remaining in solution at a range of about pH 7.3 to about pH 7.5 at 37° C.

[3] = test system: HIV-1LAI; details: Lawless et al., 1996; cited from earlier work

**Q.** Which results are given for enfuvirtide?
**A.** HIV-1 viral load [1]: significantly reduces; circulating CD4+ cell population [1]: significantly increases; stability in aqueous solution [2]: minimal to no peptide detected in solution; EC50 against HIV-1LAI [3]: 0.5 ng/mL
